Test results taken from publication PMC7931627 (ACS Central Science, 2021).

What was measured:
SARS-CoV-2 M^pro = SARS-CoV-2 M^pro (Severe acute respiratory syndrome coronavirus 2, UniProt P0DTD1); assay: biochemical; format: biochemical; details: for IC50: IC50, inhibition of SARS-CoV-2 Mpro, kinetic assay, 100 nM Mpro, triplicate, footnote a: fluorescence of compound interfered with assay
[1] = tested on: noninfectious SARS-CoV-2 replicon; format: cell-based; details: 5 in combination with remdesivir, MacSynergy II
infectious SARS-CoV-2 [2] = format: cell-based
infectious SARS-CoV-2 [3] = assay: MTT antiviral assay: protection against viral cytopathic effect in Vero E6 cells; format: cell-based
Vero E6 cells = details: MTT, no virus
[4] = tested on: normal human bronchial epithelial cells (NHBE); details: MTT

| Compound | IC50 (SARS-CoV-2 M^pro) [µM] | EC50 Plaque (infectious SARS-CoV-2 [2]) | EC50 MTT (infectious SARS-CoV-2 [3]) | other results |
| --- | --- | --- | --- | --- |
| N#Cc1ccccc1-c1cc(-c2cccc(Cl)c2)c(=O)n(-c2cccnc2)c1 [Compound 2] | 9.99 ± 2.5 | – | – | – |
| O=c1[nH]cc(-c2cc(-c3cc(Cl)cc(OCC4CC4)c3)c(=O)n(-c3cccnc3)c2)c(=O)[nH]1 [Compound 24] | – | – | – | fold boost in potency (SARS-CoV-2 M^pro; 24 vs 11, uracil series): 3 |
| CCCOc1cc(Cl)cc(-c2cc(-c3ccccc3C#N)cn(-c3cccnc3)c2=O)c1 [Compound 5] | – | – | – | factor of improvement in potency (SARS-CoV-2 M^pro; 5 over 4): ca. 30; antagonism volume [1]: 0 μM^2%; mean synergy volume [1]: 30.8 μM^2% |
| O=c1[nH]cc(-c2cc(-c3cccc(Cl)c3)c(=O)n(-c3cccnc3)c2)c(=O)[nH]1 [Compound 3] | 6.38 ± 1.21 | – | – | – |
| O=c1[nH]cc(-c2cc(-c3cc(Cl)cc(OCc4ccccc4)c3)c(=O)n(-c3cccnc3)c2)c(=O)[nH]1 [Compound 14] | – | antiviral activity was found | not in the MTT assay | – |
| O=c1[nH]cc(-c2cc(-c3cc(Cl)c(F)c(OCc4ccccc4Cl)c3)c(=O)n(-c3cccnc3)c2)c(=O)[nH]1 [Compound 23] | – | showed activity | lacked antiviral activity | – |
| N#Cc1ccccc1-c1cc(-c2cc(Cl)cc(Cl)c2)c(=O)n(-c2cccnc2)c1 [Compound 4] | 4.02 ± 1.36 | – | – | factor of enhancement in inhibitory activity (SARS-CoV-2 M^pro; 4 vs 2, addition of second chlorine): ~2 |
| O=c1[nH]cc(-c2cc(-c3cc(Cl)cc(OCc4ccccc4Cl)c3)c(=O)n(-c3cccnc3)c2)c(=O)[nH]1 [Compound 21] | – | showed activity | lacked antiviral activity | – |
| N#Cc1ccccc1-c1cc(-c2cc(Cl)cc(OCC3CC3)c2)c(=O)n(-c2cccnc2)c1 [Compound 26] | – | – | – | CC50 Vero E6 (Vero E6 cells): no cytotoxicity; CC50 NHBE [4]: no cytotoxicity |
